This test deals with T1, human recombinant caspase-3 enzyme (Homo sapiens, UniProt P42574).
T1 construct: each cDNA encoding p12 and p17 subunits of caspase-3 was PCR-amplified respectively and subcloned into a pET3-a expression vector; made in house; host or cells: E. coli BL21 (DE3), pET3-a vector
T1 sequence (P42574 29-175 limits assumed): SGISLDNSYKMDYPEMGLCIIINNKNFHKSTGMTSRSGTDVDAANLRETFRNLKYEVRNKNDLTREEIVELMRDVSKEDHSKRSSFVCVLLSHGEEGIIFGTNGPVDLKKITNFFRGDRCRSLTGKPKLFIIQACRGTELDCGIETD
T1 sequence (P42574 176-277 limits assumed): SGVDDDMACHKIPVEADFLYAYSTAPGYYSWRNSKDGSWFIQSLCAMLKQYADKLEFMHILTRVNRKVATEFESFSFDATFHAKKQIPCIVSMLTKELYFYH
Kind of test: Enzyme assay of caspase-3 inhibition (fluorogenic Ac-DEVD-AFC substrate). As to conditions: for IC50: caspase-3, Table 1, tested at 2, 20 or 200 uM, read-out: IC50; for inhibitory activity against caspase-3 (in words): compared to the reference compound. Type of test: biochemical. As to the method:
The active form of human recombinant caspase-3 enzyme was prepared from Escherichia coli (E.coli) heterologous expression system as described previously (Rotonda J. et al., Nat Struct Biol 3(7): 617–25, 1996). Briefly, each cDNA encoding p12 and p17 subunits of caspase-3 was PCR-amplified respectively and subcloned into a pET3-a expression vector (Novagen), which was followed by transfection into E. coli strain BL21 (DE3). The bacterial cultures (0.5 liters for each transfectant) were grown at 37° C. until logarithmic phase of cell growth and isopropyl-1-thio-β-D-galactopyranoside (IPTC) (Pharmacia) was then added to a final concentration of 0.5 mM. After 3 hr of incubation, the bacteria were pelleted and lysed in a lysis buffer (20 mM Tris hydrochloride pH 8.0, 1 mM EDTA, 2 mM dithiothreitol (DTT), 100 mM NaCl, 200 ug/ml of lysozyme) through sonication. After centrifugation, the pellets from each transfectants were dissolved in 6 M urea and were mixed and rapidly diluted 50 fold in 100 mM HEPES/KOH (pH 7.5), 10% sucrose, 0.1% CHAPS, 0.5 M NaCl, 10 mM DTT. The concentration of protein was determined with the Bradford method (Bio-Rad), with bovine serum albumin as the standard. To verify whether expected size of proteins were obtained, the cell lysates from each cDNA transfectants were analyzed on 14% SDS PAGE and visualized with Coomassie blue staining.
200 ul of the following assay solution was contained in each well of 96-well plate: 20 mM HEPES/KOH (pH 7.5), 10% sucrose, 10 mM DTT, 0.2 mM EDTA, 0.1% CHAPS, 200 ng of enzymes, and 2.5 uM of the substrate. The fluorogenic substrate […]-Asp-Glu-Val-Asp-7-amino-4-trifluoromethylcoumarin (Ac-DEVD-AFC) was purchased from Sigma (St Louis, Mo.) and dissolved in DMSO as a 2.5 mM stock solution and kept at −20° C. before use.
After 1 hr incubation at 37° C., the release of AFC (7-amino-4-trifluoromethyl-coumarin) was monitored in a fluorometric plate reader (Victor 1420). The excitation and emission wavelengths were 400 nm and 510 nm, respectively. The inhibitory effects of compounds on enzyme activities were determined with 2, 20 or 200 uM concentrations of the test compound run in triplicate tubes, and isotherms from three assays were calculated by computerized nonlinear regression analysis (GraphPad Prism Program, San Diego, Calif.) to yield IC50 values.

For `CCOC(=O)c1cnc2c(N)cccc2c1NCc1ccc2c(c1)OCO2` [Example 23, 8-Amino-4-[(benzo[1,3]dioxol-5-ylmethyl)-amino]-quinoline-3-carboxylic acid ethyl ester], the IC50 came to 14.3 µM. Where the note is “caspase-3 activity, at 20 uM”, the inhibition at 20 µM was determined as 86%.

For the molecule `CCCCNc1c(C(=O)OCC)cnc2c(N)cccc12` [Example 26, 8-Amino-4-butylamino-quinoline-3-carboxylic acid ethyl ester], the half-inhibitory concentration (IC50) worked out at 15.4 µM. Besides, the inhibition at 20 µM (caspase-3 activity, at 20 uM) is 88.9%.

For the molecule `CCCOC(=O)c1cnc2c(N)cccc2c1NCc1ccccn1` [Example 60, 8-Amino-4-[(pyridine-2-ylmethyl)-amino]-quinoline-3-carboxylic acid propyl ester], the inhibition at 20 µM (caspase-3 activity, at 20 uM) is 76.8%.

Turning to `CCOC(=O)c1cnc2c(N)cccc2c1NCc1ccc(Cl)cc1` [Example 42, 8-Amino-4-(4-chloro-benzylamino)-quinoline-3-carboxylic acid ethyl ester], the IC50 is 17 µM. For the same molecule, under “caspase-3 activity, at 20 uM”, the inhibition at 20 µM was found to be 82.9%.

Turning to `CCOC(=O)c1cnc2c(N)cccc2c1NCc1cc(OC)cc(OC)c1` [Example 47, 8-Amino-4-(3,5-dimethoxy-benzylamino)-quinoline-3-carboxylic acid ethyl ester], the IC50 was found to be 21.2 µM. Also, the inhibition at 20 µM (caspase-3 activity, at 20 uM) came to 69.3%.

Take `CCOC(=O)c1cnc2c(N)cccc2c1NCc1ccc(C)cc1` [Example 37, 8-Amino-4-(4-methyl-benzylamino)-quinoline-3-carboxylic acid ethyl ester]: the IC50 amounted to 15.3 µM. Further, under “caspase-3 activity, at 20 uM”, the inhibition at 20 µM is 82.1%.

As to `CCOC(=O)c1cnc2c(N)cccc2c1NCc1cccc2ccccc12` [Example 19, 8-Amino-4-[(naphthalen-1-ylmethyl)-amino]-quinoline-3-carboxylic acid ethyl ester], the IC50 came out at 14.9 µM. In addition, where the note is “caspase-3 activity, at 20 uM”, the inhibition at 20 µM turned out to be 84.9%.

In the case of `CCOC(=O)c1cnc2c(N)cccc2c1NCc1ccc(OC)cc1` [Example 33, 8-Amino-4-(4-methoxy-benzylamino)-quinoline-3-carboxylic acid ethyl ester], the IC50 was found to be 15.8 µM. Further, the inhibition at 20 µM (caspase-3 activity, at 20 uM) is 86.5%.

As to `CCOC(=O)c1cnc2c(N)cccc2c1NCCc1ccccc1` [Example 38, 8-Amino-4-phenethylamino-quinoline-3-carboxylic acid ethyl ester], the IC50 came to 16.6 µM. Moreover, the inhibition at 20 µM (caspase-3 activity, at 20 uM) was 77.2%.

For the molecule `CCOC(=O)c1cnc2c(N)cccc2c1NCc1ccccn1` [Example 20, 8-Amino-4-[(pyridin-2-ylmethyl)-amino]-quinoline-3-carboxylic acid ethyl ester], the IC50 is 13.2 µM and the “inhibitory activity against caspase-3 (in words)” value (“inhibitory activity” for short) is “superior activity”. The inhibition at 20 µM (caspase-3 activity, at 20 uM) is 90.1%.

With `CCOC(=O)c1cnc2c(N)cccc2c1NCC(C)C` [Example 27, 8-Amino-4-isobutylamino-quinoline-3-carboxylic acid ethyl ester], the IC50 turned out to be 15.9 µM. The inhibition at 20 µM (caspase-3 activity, at 20 uM) is 87.8%.

For `CCOC(=O)c1cnc2c(N)cccc2c1NCc1ccccc1` [Example 17, 8-Amino-4-benzylamino-quinoline-3-carboxylic acid ethyl ester], the IC50 worked out at 14.4 µM. For the same molecule, the inhibition at 20 µM (caspase-3 activity, at 20 uM) stood at 81.7%.

For `CCOC(=O)c1cnc2c(N)cccc2c1NCCCCc1ccccc1` [Example 40, 8-Amino-4-(4-phenyl-butylamino)-quinoline-3-carboxylic acid ethyl ester], the IC50 was 16.4 µM. Also, the inhibition at 20 µM (caspase-3 activity, at 20 uM) is 81.7%.

As for `CCOC(=O)c1cnc2c(N)cccc2c1NCc1ccccc1F` [Example 29, 8-Amino-4-(2-fluoro-benzylamino)-quinoline-3-carboxylic acid ethyl ester], the IC50 was 18.8 µM. Further, the inhibition at 20 µM (caspase-3 activity, at 20 uM) was 78.8%.

As for `CCOC(=O)c1cnc2c(N)cccc2c1NCc1ccc(Cl)cc1Cl` [Example 43, 8-Amino-4-(2,4-dichloro-benzylamino)-quinoline-3-carboxylic acid ethyl ester], the IC50 is 27 µM. In addition, under “caspase-3 activity, at 20 uM”, the inhibition at 20 µM worked out at 54.7%.

Regarding `CN1C(=O)C(=O)c2cc(S(=O)(=O)N3CCC[C@H]3COc3ccccc3)ccc21` [(S)-1-methyl-5-{1-[2-(phenoxymethyl)pyrrolidinyl]sulfonyl} isatin, reference compound], for the setting “caspase-3 activity, at 20 uM”, the “%-Inhibition” value stood at 76.8%.

On to `CC(C)OC(=O)c1cnc2c(N)cccc2c1NCc1ccccn1` [Example 61, 8-Amino-4-[(pyridin-2-ylmethyl)-amino]-quinoline-3-carboxylic acid isopropyl ester], for which the inhibition at 20 µM (caspase-3 activity, at 20 uM) stood at 81.4%.

As to `CCOC(=O)c1cnc2c(N)cccc2c1NCCc1ccccc1N` [Example 46, 8-Amino-4-[2-(2-amino-phenyl)-ethylamino]-quinoline-3-carboxylic acid ethyl ester], the IC50 was 16.2 µM. The inhibition at 20 µM (caspase-3 activity, at 20 uM) was found to be 83.8%.

In the case of `CCOC(=O)c1cnc2c(N)cccc2c1NC1CCCCC1` [Example 18, 8-Amino-4-cyclohexylamino-quinoline-3-carboxylic acid ethyl ester], the IC50 amounted to 14.1 µM. Also, for the setting “caspase-3 activity, at 20 uM”, the inhibition at 20 µM was found to be 84.7%.

For the molecule `CCOC(=O)c1cnc2c(N)cccc2c1NCc1cccs1` [Example 21, 8-Amino-4-[(thiophen-2-ylmethyl)-amino]-quinoline-3-carboxylic acid ethyl ester], the IC50 came to 19.2 µM. For the same molecule, the inhibition at 20 µM (caspase-3 activity, at 20 uM) stood at 78%.

Take `CCOC(=O)c1cnc2c(N)cccc2c1NCCOC` [Example 35, 8-Amino-4-(2-methoxy-ethylamino)-quinoline-3-carboxylic acid ethyl ester]: the IC50 was 13.6 µM and the “inhibitory activity” value is recorded as “superior activity”. The inhibition at 20 µM (caspase-3 activity, at 20 uM) came out at 91.5%.

On to `CCOC(=O)c1cnc2c(N)cccc2c1NCc1cccc(F)c1` [Example 30, 8-Amino-4-(3-fluoro-benzylamino)-quinoline-3-carboxylic acid ethyl ester], for which the IC50 is 19.1 µM. The inhibition at 20 µM (caspase-3 activity, at 20 uM) worked out at 76.9%.

Turning to `CCOC(=O)c1cnc2c(N)cccc2c1NC(C)C` [Example 28, 8-Amino-4-isopropylamino-quinoline-3-carboxylic acid ethyl ester], the concentration for half-maximal inhibition (IC50) stood at 17.6 µM. Also, the inhibition at 20 µM (caspase-3 activity, at 20 uM) was found to be 85.2%.

As for `CCOC(=O)c1cnc2c(N)cccc2c1NC(CC)COC` (stereo not shown) [Example 25, 8-Amino-4-(1-methoxymethyl-propylamino)-quinoline-3-carboxylic acid ethyl ester], the IC50 amounted to 16.5 µM. The inhibition at 20 µM (caspase-3 activity, at 20 uM) was 88.8%.

Take `CCOC(=O)c1cnc2c(N)cccc2c1NCCCOC(C)C` [Example 31, 8-Amino-4-(3-isopropoxy-propylamino)-quinoline-3-carboxylic acid ethyl ester]: the IC50 worked out at 13.5 µM and the “inhibitory activity” value is listed as “superior activity”. The inhibition at 20 µM (caspase-3 activity, at 20 uM) was determined as 92.5%.

For `CCCNc1c(C(=O)OCC)cnc2c(N)cccc12` [Example 45, 8-Amino-4-propylamino-quinoline-3-carboxylic acid ethyl ester], the IC50 stood at 16 µM. For the same molecule, the inhibition at 20 µM (caspase-3 activity, at 20 uM) came out at 85%.

With `CCOC(=O)c1cnc2c(N)cccc2c1NCCCc1ccccc1` [Example 39, 8-Amino-4-(3-phenyl-propylamino)-quinoline-3-carboxylic acid ethyl ester], the IC50 was found to be 16.4 µM. Further, the inhibition at 20 µM (caspase-3 activity, at 20 uM) stood at 78.8%.

Turning to `CCOC(=O)c1cnc2c(N)cccc2c1NCc1cccc(OC)c1OC` [Example 44, 8-Amino-4-(2,3-dimethoxy-benzylamino)-quinoline-3-carboxylic acid ethyl ester], the 50% inhibitory concentration (IC50) was determined as 18.1 µM. Besides, the inhibition at 20 µM (caspase-3 activity, at 20 uM) was 72.1%.

For the molecule `CCOC(=O)c1cnc2c(N)cccc2c1NCc1ccccc1Cl` [Example 41, 8-Amino-4-(2-chloro-benzylamino)-quinoline-3-carboxylic acid ethyl ester], the IC50 turned out to be 17.8 µM. Further, the inhibition at 20 µM (caspase-3 activity, at 20 uM) amounted to 78.4%.

In general, IC50 refers to the concentration that inhibits the measured activity by half. For orientation: inhibition means the change of the read-out against control, counted positive when it falls.

For the origin of these results see patent US7009053B2, “Quinoline derivatives as caspase-3 inhibitor, preparation for producing the same and pharmaceutical composition comprising the same” (Yungjin Pharmaceuticals Co., Ltd., priority 2002, dated 2006).
